The text below walks through data of publication PMC8406319, “The dCache Chemoreceptor TlpA of Helicobacter pylori Binds Multiple Attractant and Antagonistic Ligands via Distinct Sites” (mBio, 2021).

The target in test [1] is T1, TlpAD254A (Helicobacter pylori, UniProt O24925, D254A).
T1 sequence (O24925 28-299 D254A): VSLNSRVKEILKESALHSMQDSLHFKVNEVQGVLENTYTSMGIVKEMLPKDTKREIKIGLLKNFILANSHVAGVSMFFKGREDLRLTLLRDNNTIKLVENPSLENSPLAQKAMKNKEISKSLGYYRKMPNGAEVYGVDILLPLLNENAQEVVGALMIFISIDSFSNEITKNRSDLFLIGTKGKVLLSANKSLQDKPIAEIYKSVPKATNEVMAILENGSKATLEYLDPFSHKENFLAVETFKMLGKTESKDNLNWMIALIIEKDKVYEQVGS
In words: biochemical. An excerpt:
(§1) The periplasmic portion of TlpA (TlpALBD), amino acids 28 to 299, from Helicobacter pylori SS1 was cloned into a pBH4 expression vector (pBH4_TlpALBD) to generate an N-terminal 6×His-tagged construct, with a tobacco etch virus (TEV) protease site, under the control of isopropyl-β-D-thiogalactopyranoside (IPTG) ([19]). […] TlpALBD and all point mutants were purified as described previously by Sweeney et al. ([19]).
(§2) Purified TlpALBD was immobilized on a CM5 series S sensor chip, and binding affinities were tested using a Biacore S200 instrument (GE Healthcare) as described previously ([39], [57], [59]). Briefly, proteins were captured using an amine-coupling kit (GE Healthcare), in which the carboxylmethyl dextran matrix of the sensor chip was activated by the injection of a mixture of 0.2 M 1-ethyl-3-[(3-dimethylamino)propyl]-carbodiimide (EDC) and 0.05 M N-hydroxysuccinimide (NHS), followed by the neutralization of the remaining unreacted NHS ester groups by the injection of 1 M ethanolamine-HCl (pH 8.0). Purified TlpALBD was diluted in 10 mM sodium acetate buffer (pH 4.5) at a concentration of 100 μg/ml for immobilization to the chip. A total of 8,400 response units (RU) of TlpALBD were captured on flow cell 2. As a negative control, flow cell 1 was a blank control undergoing the same treatment as the other flow paths, without the protein injection. This set enabled double-reference subtraction of the responses (2 − 1, 3 − 1, and 4 − 1). The tested compounds were prepared as a stock concentration of 100 to 200 mM in PBS. The compounds were then diluted between 1 nM and 1 mM in a series of 1:10 dilutions in PBS and run over the flow cells at a flow rate of 30 μl/min. Between each sample testing, a series of buffer-only injections was run to enable double-blank subtraction for the sensorgram assessment. […] The data sets were analyzed using Biacore S200 evaluation software 2.0.2; sensorgrams were double-reference subtracted.

The target in test [2] is T2, TlpALBD (TlpAWT) (Helicobacter pylori, UniProt O24925).
T2 sequence (O24925 28-299): T1 sequence (O24925 28-299 D254A)
Nature of the test: biochemical. Conditions: SPR.
Description: as §1, §2

Test [3] has as its target T3, TlpAD165A (Helicobacter pylori, UniProt O24925, D165A).
T3 sequence (O24925 28-299 D165A): T1 sequence (O24925 28-299 D254A)
Nature of the test: biochemical.
Description: as §1, §2

Test [4] has as its target T4, TlpAY252A (Helicobacter pylori, UniProt O24925, Y252A).
T4 sequence (O24925 28-299 Y252A): T1 sequence (O24925 28-299 D254A)
Nature of the test: biochemical.
Description: as §1, §2

In test [5] the target is T5, TlpAM183A (Helicobacter pylori, UniProt O24925, M183A).
T5 sequence (O24925 28-299 M183A): T1 sequence (O24925 28-299 D254A)
In words: biochemical.
Description: as §1, §2

Test [6] deals with T6, TlpAY228A (Helicobacter pylori, UniProt O24925, Y228A).
T6 sequence (O24925 28-299 Y228A): T1 sequence (O24925 28-299 D254A)
Nature of the test: biochemical.
Description: as §1, §2

In test [7] the test system is H. pylori PMSS1 ΔtlpA. In words: Temporal chemotaxis assay (direction changes), ΔtlpA mutant. Conditions: ligands 0.1-10 mM, controls 50 μM dipyridyl, 10 mM HCl. It is filed as cell-based, Helicobacter pylori. The protocol:
Cultures of H. pylori PMSS1 WT and ΔtlpA strains were grown overnight, back-diluted, and then incubated until an OD600 of 0.12 to 0.15 was reached. Cultures were treated with water (Mock) or various concentrations of compounds, as indicated. For panels C and E, the pH of cysteine, thiamine, malic acid, and α-ketoglutarate stocks was adjusted using NaOH to match the pH of the water used for the untreated control. The cells were immediately filmed, and direction changes were counted over a 3-s swimming period in at least 100 cells per treatment from 3 biological replicates. Data are normalized to the values for the untreated control for each strain, as described in Materials and Methods. Error bars represent the standard errors of the means. *, P < 0.05; **, P < 0.01; ***, P < 0.001 (comparisons to the untreated control per strain using two-way ANOVA with Dunnett’s multiple-comparison test).
To determine if chemoattractant responses toward arginine, fumarate, and cysteine were TlpA dependent, the same tracking experiments were repeated with a mutant lacking tlpA (ΔtlpA).
Swimming behavior assays were done with H. pylori PMSS1 strains grown in BB10 as described above. Cultures grown overnight were diluted to an optical density at 600 nm (OD600) of 0.1 in fresh BB10 and then incubated with shaking as described above until an OD600 of 0.12 to 0.15 was reached. […] The number of direction changes in a bacterial swimming trajectory was enumerated over a 3-s interval to determine whether each putative ligand is sensed as an attractant or repellent or elicits no response ([20], [25][–][30]). […] Each control is sensed by chemoreceptors other than TlpA ([24], [25], [29], [31]). The pH of BB10 upon treatment was independently assessed using a Denver Instruments pH meter. Prior to realizing that chemotactic responses may be due to medium acidification, we resuspended all ligands in pure water. Therefore, to be able to compare the results to those of previous experiments, we continued resuspending acidified ligands in pure water and then adjusting the pH of the resuspended ligand using NaOH. Cultures were filmed immediately after ligand addition at a ×400 magnification using a Hamamatsu C4742-95 digital camera with μManager software (version 1.4.22), mounted on a Nikon Eclipse E600 phase-contrast microscope. For the competition chemotaxis assay, cultures of H. pylori and ligands were prepared as described above. However, 1 min after the addition of a nonchemoactive ligand at a final concentration of 10 mM, a chemoactive ligand was added at a final concentration of 10 mM, and the cultures were then filmed as described above. Videos were relabeled to blind the observer to the strain identity. For each sample, >100 3-s-long bacterial tracks from three independent cultures were analyzed manually to identify stops followed by direction changes. Data for all biological replicates under each condition were combined, and the average number of direction changes in 3 s and the standard error of the mean were calculated. For each strain, data were normalized to the values for the untreated control under each experimental condition. Statistical analysis of the data for treated versus untreated samples was performed using two-way analysis of variance (ANOVA) and Dunnett’s multiple-comparison test.

Where [8] appears, read: Mean binding affinity ± SD, Table 1, n = 3.
Setting [9] is: dissociation constant [Kd], WT TlpALBD.

Structures are written as SMILES. Structures can show the parent of a compound that is named as a salt. Where two headings read alike, the source gives them in different places.

On to `N=C(N)NCCC[C@H](N)C(=O)O` [Arginine, L-arginine monohydrochloride], for which the Kd is 3.71 ± 0.73 µM in test [1]; 2 ± 0.11 µM in test [2] (setting [8]); less than 10 µM in test [2] (setting [9]); 12.4 ± 0.84 µM in test [3]; 4.96 ± 1.8 µM in test [4]; 22.3 ± 5.9 µM in test [5]. In addition, the Kd in test [6] is 8.3 ± 1.6 µM. Also, in test [7], the “Chemotactic response of ΔtlpA mutant” value is listed as “failed to exhibit a chemotactic response”.

On to `N[C@@H](CS)C(=O)O` [Cysteine, L-cysteine hydrochloride monohydrate], for which the Kd was 4.58 ± 1.5 µM in test [1]; 4.7 ± 0.3 µM in test [2] (setting [8]); less than 10 µM in test [2] (setting [9]); 41.9 ± 0.4 µM in test [3]; 5.5 ± 0.8 µM in test [4]; 36.1 ± 15.7 µM in test [5]. In addition, the Kd in test [6] is 15.7 ± 6.6 µM. The “Chemotactic response of ΔtlpA mutant” value in test [7] is given as “failed to exhibit a chemotactic response”.

Consider `O=C(O)/C=C/C(=O)O` [Fumarate, sodium fumarate], for which the Kd was 44 ± 8.1 µM in test [1]; 10 ± 1.53 µM in test [2] (setting [8]); less than 10 µM in test [2] (setting [9]); 100 ± 38.9 µM in test [3]; 8.5 ± 1.7 µM in test [4]; 106 ± 36.6 µM in test [5]. The compound also yielded a Kd in test [6] of 46.6 ± 3.9 µM. In test [1] (membrane-proximal mutant vs WT), the “Effect of TlpAD254A mutation on binding” value is “affected only fumarate binding”. Besides, the “Chemotactic response of ΔtlpA mutant” value in test [7] is on record as “failed to exhibit a chemotactic response”.

`N[C@H]1C(O)O[C@H](CO)[C@@H](O)[C@@H]1O` (stereo partly drawn) [Glucosamine, D(+)-glucosamine hydrochloride]: the Kd was 9.84 ± 3.7 µM in test [1]; 10.5 ± 2.8 µM in test [2] (setting [8]); less than 10 µM in test [2] (setting [9]); 96 ± 24.3 µM in test [3]; 2.96 ± 0.7 µM in test [4]; 94.6 ± 57.3 µM in test [5]. The Kd in test [6] (read-out: Mean binding affinity ± SD, TlpAY228A, SPR, membrane-proximal mutant, n = 3) worked out at 17.1 µM.

Regarding `O=C(O)C[C@H](O)C(=O)O` [Malic acid, L-malic acid], the Kd was 29.3 ± 2 µM in test [1]; 46 ± 17 µM in test [2] (setting [8]); more than 45 µM in test [2] (setting [9]); 11.9 ± 4.3 µM in test [3]; 14.2 ± 6.2 µM in test [4]; 33.6 ± 6.2 µM in test [5]. The same compound yielded a Kd in test [6] of 28.6 ± 9.4 µM.

In the case of `Cc1ncc(C[n+]2csc(CCO)c2C)c(N)n1` [Thiamine, thiamine hydrochloride], the Kd in test [1] was 39.3 ± 4.3 µM; in test [2] (setting [8]), 60 ± 0.6 µM; in test [2] (setting [9]), more than 45 µM; in test [3], 43.9 ± 14.1 µM; in test [4] it was 35 ± 7.3 µM; in test [5], 18.1 ± 1.2 µM. Moreover, in test [6], the Kd is 29.5 ± 12.3 µM.
